Data on ten molecules can be found in US20080274892A1, “Novel Haloalkylsulfonanilide Derivative, Herbicide, and Method of Use Thereof” (priority 2005, published 2008).

Series [1] deals with bulrush. The series can be described thus: Test Example 4: low dosage test for rice paddy weeds. As to conditions: 300 g/ha as an active ingredient; plants treated at the one leaf stage; 21 days after treatment; vs untreated control. The format is in vivo, Scirpus juncoides. The method in brief: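 Compound applied as a formulation at 300 g/ha to one-leaf bulrush grown in flooded clay loam (5 cm water) in a hot house. After 21 days, growth inhibition versus untreated plants rated on a 0–4 scale, with 4 meaning 90–100%.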

In the next series the test system is barnyard glass. The series can be described thus: Test Example 2: herbicidal efficacy on rice paddy weeds post-emergence. As to conditions: dosage 1000 g/ha; post-emergence, one leaf stage; 21 days after treatment. The format is in vivo, Echinochloa crus-galli. An outline of the steps: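 Efficacy on paddy weeds was scored on a 0 to 4 growth-inhibition scale: 4 for 90%-100%, 3 for 70%-89%, 2 for 40%-69%, 1 for 1%-39% and 0 for 0%. Barnyard glass was grown in clay loam in 75 cm^2 pots under 5 cm of water in a hot house. It was compared with untreated pots 21 days after treatment.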

In series [2] the test system is paddy rice plant (cultivar: Nihonbare). Description: Test Example 3: phytotoxicity test for transplanted paddy rice plant. The format is in vivo. The settings on record: dosage 1000 g/ha; transplanted rice, treated 5 days after transplantation; 21 days after treatment. The method in brief:
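Clay loam soil was placed in a 75 cm^2 plastic pot and flooded to a water depth of 5 cm. Two Nihonbare paddy rice plants at the two-leaf stage were transplanted 1 cm deep and grown in a hot house. After treatment, pots stayed in the hot house for 21 days, and phytotoxicity was then graded against an untreated control.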

The subject of series [3] is false pimpernel. The series can be described thus: Test Example 2: herbicidal efficacy on rice paddy weeds post-emergence. As to conditions: dosage 1000 g/ha; post-emergence, one leaf stage; 21 days after treatment. The format is in vivo, Lindernia pyxidaria.
The test system of series [4] is false pimpernel. The series can be described thus: Test Example 1: herbicidal efficacy on rice paddy weeds pre-emergence. The format is in vivo, Lindernia pyxidaria. The settings on record: dosage 1000 g/ha, 21 days.
Series [5] deals with bulrush. The series is described as above. The format is in vivo, Scirpus juncoides. The settings on record: dosage 1000 g/ha, 21 days.
The test system of series [6] is bulrush. The series can be described thus: Test Example 2: herbicidal efficacy on rice paddy weeds post-emergence. The format is in vivo, Scirpus juncoides. The settings on record: dosage 1000 g/ha; post-emergence, one leaf stage; 21 days after treatment.
Series [7] has as its system transplanted paddy rice plant and Bulrush. The series can be described thus: Test Example 5: selectivity between transplanted paddy rice plant and weeds. As to conditions: (highest dosage with no phytotoxicity to paddy rice)/(lowest dosage with effective level 4 on Bulrush); rice 3000-100 g/ha, Bulrush 300-10 g/ha; 21 days. The format is in vivo. An outline of the steps: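 Scoring ran 21 days after treatment in a hothouse on a 0–4 scale (4 = 90–100%, 3 = 70–89%, 2 = 40–69%, 1 = 1–39%, 0 = none) relative to untreated plants. Post-emergence bulrush received 10, 30, 100 and 300 g/ha active ingredient. Transplanted rice received 100, 300, 1000 and 3000 g/ha to assess crop injury.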

Take `CCC1(CC)CN(Cc2ccccc2N(C(=O)OC)S(=O)(=O)C(F)(F)F)C(=S)O1` [1-183]: in the series on bulrush [1], the “Herbicide effect to Bulrush” value is reported as 4 (90%-100% of herbicidal efficacy or phytotoxicity). For the same molecule, the “Burnyard grass post (herbicidal efficacy grade)” value (from here on “Burnyard grass post”) with barnyard glass is recorded as 4 (90%-100% of herbicidal efficacy or phytotoxicity). Further, the “Phytotoxicity to paddy rice” value in series [2] is on record as 1 (1%-39% of herbicidal efficacy or phytotoxicity). Further, in the series on false pimpernel [3], the “False pimpernel post (herbicidal efficacy grade)” value (“False pimpernel post” for short) was 4 (90%-100% of herbicidal efficacy or phytotoxicity). Moreover, the “False pimpernel pre (herbicidal efficacy grade)” value (from here on “False pimpernel pre”) in the series on false pimpernel [4] is 4 (90%-100% of herbicidal efficacy or phytotoxicity). Moreover, in the series with bulrush [5], the “Bulrush pre (herbicidal efficacy grade)” value is 4 (90%-100% of herbicidal efficacy or phytotoxicity). Besides, the “Bulrush post (herbicidal efficacy grade)” value with bulrush [6] is on record as 4 (90%-100% of herbicidal efficacy or phytotoxicity). The “Selective Index” value in series [7] turned out to be 10.
In the case of `CCCCCCCOC(=O)N(c1ccccc1CN1CC(C)(C)OC1=O)S(=O)(=O)C(F)(F)F` [1-94], the “Herbicide effect to Bulrush” value in the series on bulrush [1] is given as 4 (90%-100% of herbicidal efficacy or phytotoxicity). For the same molecule, the “Burnyard grass post” value in the series on barnyard glass is 4 (90%-100% of herbicidal efficacy or phytotoxicity). For the same molecule, in series [2], the “Phytotoxicity to paddy rice” value is given as 1 (1%-39% of herbicidal efficacy or phytotoxicity). Also, the “False pimpernel post” value in the series with false pimpernel [3] is listed as 4 (90%-100% of herbicidal efficacy or phytotoxicity). In addition, the “False pimpernel pre” value with false pimpernel [4] is given as 4 (90%-100% of herbicidal efficacy or phytotoxicity). In the series on bulrush [5], the “Bulrush pre (herbicidal efficacy grade)” value is reported as 4 (90%-100% of herbicidal efficacy or phytotoxicity). For the same molecule, the “Bulrush post (herbicidal efficacy grade)” value with bulrush [6] is recorded as 4 (90%-100% of herbicidal efficacy or phytotoxicity). Further, the “Selective Index” value in series [7] was “≧30”.
For the molecule `CC(C)COC(=O)N(c1ccccc1CN1CC(C2CC2)(C2CC2)OC1=O)S(=O)(=O)C(F)(F)F` [1-171], the “Herbicide effect to Bulrush” value in the series with bulrush [1] is recorded as 4 (90%-100% of herbicidal efficacy or phytotoxicity). In addition, the “Burnyard grass post” value in the series on barnyard glass was 4 (90%-100% of herbicidal efficacy or phytotoxicity). In addition, the “Phytotoxicity to paddy rice” value in series [2] is listed as 1 (1%-39% of herbicidal efficacy or phytotoxicity). For the same molecule, the “False pimpernel post” value with false pimpernel [3] is recorded as 4 (90%-100% of herbicidal efficacy or phytotoxicity). In addition, in the series with false pimpernel [4], the “False pimpernel pre” value is 4 (90%-100% of herbicidal efficacy or phytotoxicity). Further, the “Bulrush pre (herbicidal efficacy grade)” value with bulrush [5] is 4 (90%-100% of herbicidal efficacy or phytotoxicity). Also, the “Bulrush post (herbicidal efficacy grade)” value in the series on bulrush [6] was 4 (90%-100% of herbicidal efficacy or phytotoxicity). Also, the “Selective Index” value in series [7] came to 10.
`CCCCC(CC)COC(=O)N(c1ccccc1CN1CC(C)(C)OC1=O)S(=O)(=O)C(F)(F)F` (centres unmarked) [1-68]: the “Herbicide effect to Bulrush” value in the series with bulrush [1] was 4 (90%-100% of herbicidal efficacy or phytotoxicity). Moreover, the “Burnyard grass post” value with barnyard glass is reported as 4 (90%-100% of herbicidal efficacy or phytotoxicity). In addition, the “Phytotoxicity to paddy rice” value in series [2] is given as 1 (1%-39% of herbicidal efficacy or phytotoxicity). The “False pimpernel post” value with false pimpernel [3] is 4 (90%-100% of herbicidal efficacy or phytotoxicity). In addition, the “False pimpernel pre” value in the series with false pimpernel [4] is reported as 4 (90%-100% of herbicidal efficacy or phytotoxicity). Besides, the “Bulrush pre (herbicidal efficacy grade)” value with bulrush [5] is listed as 4 (90%-100% of herbicidal efficacy or phytotoxicity). The “Bulrush post (herbicidal efficacy grade)” value in the series on bulrush [6] is recorded as 4 (90%-100% of herbicidal efficacy or phytotoxicity). In series [7], the “Selective Index” value is reported as 10.
For the molecule `COC(=O)N(c1ccccc1CN1C(=O)OCC1C)S(=O)(=O)C(F)(F)F` (centres unmarked) [1-150], in the series with bulrush [1], the “Herbicide effect to Bulrush” value is recorded as 4 (90%-100% of herbicidal efficacy or phytotoxicity). The “Burnyard grass post” value in the series with barnyard glass was 4 (90%-100% of herbicidal efficacy or phytotoxicity). Moreover, the “Phytotoxicity to paddy rice” value in series [2] was 2 (40%-69% of herbicidal efficacy or phytotoxicity). In addition, the “False pimpernel post” value in the series with false pimpernel [3] is reported as 4 (90%-100% of herbicidal efficacy or phytotoxicity). Moreover, in the series on false pimpernel [4], the “False pimpernel pre” value was 4 (90%-100% of herbicidal efficacy or phytotoxicity). Moreover, the “Bulrush pre (herbicidal efficacy grade)” value with bulrush [5] is recorded as 4 (90%-100% of herbicidal efficacy or phytotoxicity). For the same molecule, the “Bulrush post (herbicidal efficacy grade)” value in the series with bulrush [6] was 4 (90%-100% of herbicidal efficacy or phytotoxicity). The “Selective Index” value in series [7] is 10.
For `CC1(C)CN(Cc2ccccc2N(C(=O)Oc2ccccc2)S(=O)(=O)C(F)(F)F)C(=O)O1` [1-85], the “Herbicide effect to Bulrush” value in the series on bulrush [1] is recorded as 4 (90%-100% of herbicidal efficacy or phytotoxicity). Besides, in the series on barnyard glass, the “Burnyard grass post” value is listed as 4 (90%-100% of herbicidal efficacy or phytotoxicity). Besides, in series [2], the “Phytotoxicity to paddy rice” value is recorded as 2 (40%-69% of herbicidal efficacy or phytotoxicity). The “False pimpernel post” value in the series with false pimpernel [3] is recorded as 4 (90%-100% of herbicidal efficacy or phytotoxicity). The “False pimpernel pre” value in the series with false pimpernel [4] was 4 (90%-100% of herbicidal efficacy or phytotoxicity). The “Bulrush pre (herbicidal efficacy grade)” value with bulrush [5] is reported as 4 (90%-100% of herbicidal efficacy or phytotoxicity). Further, in the series on bulrush [6], the “Bulrush post (herbicidal efficacy grade)” value is 4 (90%-100% of herbicidal efficacy or phytotoxicity). The “Selective Index” value in series [7] turned out to be 10.
On to `CC1CN(Cc2ccccc2NS(=O)(=O)C(F)(F)F)C(=O)O1` (centres unmarked) [1-17], for which the “Herbicide effect to Bulrush” value with bulrush [1] is recorded as 3 (70%-89% of herbicidal efficacy or phytotoxicity). In addition, the “Burnyard grass post” value with barnyard glass is 4 (90%-100% of herbicidal efficacy or phytotoxicity). Also, in series [2], the “Phytotoxicity to paddy rice” value was 0 (0% of herbicidal efficacy or phytotoxicity). In addition, the “False pimpernel post” value with false pimpernel [3] is listed as 4 (90%-100% of herbicidal efficacy or phytotoxicity). Moreover, the “False pimpernel pre” value in the series with false pimpernel [4] is reported as 4 (90%-100% of herbicidal efficacy or phytotoxicity). Further, the “Bulrush pre (herbicidal efficacy grade)” value in the series with bulrush [5] was 4 (90%-100% of herbicidal efficacy or phytotoxicity). Further, the “Bulrush post (herbicidal efficacy grade)” value in the series on bulrush [6] is 4 (90%-100% of herbicidal efficacy or phytotoxicity). Further, the “Selective Index” value in series [7] amounted to 10.
For the molecule `CC1(C)CN(Cc2ccccc2N(C(=O)OCC(Cl)(Cl)Cl)S(=O)(=O)C(F)(F)F)C(=O)O1` [1-65], the “Herbicide effect to Bulrush” value in the series with bulrush [1] was 4 (90%-100% of herbicidal efficacy or phytotoxicity). In the series on barnyard glass, the “Burnyard grass post” value is on record as 4 (90%-100% of herbicidal efficacy or phytotoxicity). Moreover, the “Phytotoxicity to paddy rice” value in series [2] was 1 (1%-39% of herbicidal efficacy or phytotoxicity). The “False pimpernel post” value with false pimpernel [3] is on record as 4 (90%-100% of herbicidal efficacy or phytotoxicity). The “False pimpernel pre” value in the series on false pimpernel [4] is given as 4 (90%-100% of herbicidal efficacy or phytotoxicity). In the series on bulrush [5], the “Bulrush pre (herbicidal efficacy grade)” value is 4 (90%-100% of herbicidal efficacy or phytotoxicity). Further, the “Bulrush post (herbicidal efficacy grade)” value in the series with bulrush [6] is 4 (90%-100% of herbicidal efficacy or phytotoxicity). For the same molecule, the “Selective Index” value in series [7] came out at 10.
Regarding `CCCCCOC(=O)N(c1ccccc1CN1CC(C)(CC)OC1=O)S(=O)(=O)C(F)(F)F` (centres unmarked) [1-91], in the series on bulrush [1], the “Herbicide effect to Bulrush” value is reported as 4 (90%-100% of herbicidal efficacy or phytotoxicity). For the same molecule, the “Burnyard grass post” value in the series on barnyard glass is listed as 4 (90%-100% of herbicidal efficacy or phytotoxicity). Further, the “Phytotoxicity to paddy rice” value in series [2] is 3 (70%-89% of herbicidal efficacy or phytotoxicity). Also, the “False pimpernel post” value in the series on false pimpernel [3] is 4 (90%-100% of herbicidal efficacy or phytotoxicity). Further, in the series with false pimpernel [4], the “False pimpernel pre” value was 4 (90%-100% of herbicidal efficacy or phytotoxicity). For the same molecule, in the series on bulrush [5], the “Bulrush pre (herbicidal efficacy grade)” value is listed as 4 (90%-100% of herbicidal efficacy or phytotoxicity). The “Bulrush post (herbicidal efficacy grade)” value with bulrush [6] is reported as 4 (90%-100% of herbicidal efficacy or phytotoxicity). For the same molecule, in series [7], the “Selective Index” value was determined as 30.
As for `CC(C)COC(=O)N(c1ccccc1CN1C(=O)OC(C)(C)C1=O)S(=O)(=O)C(F)(F)F` [Compound No. 1-189, 3-{2-[N-(isobutoxycarbonyl)-N-(trifluoromethanesulfonyl)amino]benzyl}-5,5-dimethyloxazolidine-2,4-dione], the “Herbicide effect to Bulrush” value in the series on bulrush [1] is 4 (90%-100% of herbicidal efficacy or phytotoxicity). The “Burnyard grass post” value in the series with barnyard glass is given as 4 (90%-100% of herbicidal efficacy or phytotoxicity). Besides, in series [2], the “Phytotoxicity to paddy rice” value is on record as 1 (1%-39% of herbicidal efficacy or phytotoxicity). The “False pimpernel post” value with false pimpernel [3] is given as 4 (90%-100% of herbicidal efficacy or phytotoxicity). For the same molecule, the “False pimpernel pre” value in the series on false pimpernel [4] is recorded as 4 (90%-100% of herbicidal efficacy or phytotoxicity). In addition, the “Bulrush pre (herbicidal efficacy grade)” value in the series with bulrush [5] is recorded as 4 (90%-100% of herbicidal efficacy or phytotoxicity). Further, the “Bulrush post (herbicidal efficacy grade)” value in the series with bulrush [6] is given as 4 (90%-100% of herbicidal efficacy or phytotoxicity). Also, the “Selective Index” value in series [7] is on record as “≧10”.
